Measured values: patent publication US20120122679A1, “MESOIONIC PESTICIDES” (E. I. Du Pont De Nemours and Company, priority 2009, published 2012)

System: green peach aphid (Myzus persicae)
Assay: Test F: control of green peach aphid on radish plant, contact and/or systemic
Type: in vivo
Conditions: sprayed at 50 ppm; assessed after 6 days
Method: Test compounds were formulated using a solution containing 10% acetone, 90% water and 300 ppm X-77® Spreader Lo-Foam Formula non-ionic surfactant containing alkylarylpolyoxyethylene, free fatty acids, glycols and isopropanol (Loveland Industries, Inc. Greeley, Colorado, USA). The formulated compounds were applied in 1 mL of liquid through a SUJ2 atomizer nozzle with ⅛ JJ custom body (Spraying Systems Co. Wheaton, Ill., USA) positioned 1.27 cm (0.5 inches) above the top of each test unit. Test compounds were sprayed at 250 and/or 50 ppm, and replicated three times. After spraying of the formulated test compound, each test unit was allowed to dry for 1 h and then a black, screened cap was placed on top. The test units were held for 6 days in a growth chamber at 25° C. and 70% relative humidity. Plant feeding damage was then visually assessed based on foliage consumed.
For evaluating control of green peach aphid (Myzus persicae) through contact and/or systemic means, the test unit consisted, of a small open container with a 12-15-day-old radish plant inside. […]
Test compounds were formulated and sprayed at 250 ppm and/or 50 ppm as described for Test A. The applications were replicated three times. […] Each test unit was then visually assessed for insect mortality.

O=c1c(SC(F)(F)F)c([O-])[n+](Cc2cnc(Cl)s2)c2ccccn12 [Compound 102]
mortality (at least 80% mortality): at least 80%
